Source: patent US11591350B2, “Modulators of cystic fibrosis transmembrane conductance regulator” (Vertex Pharmaceuticals Incorporated, priority 2019, dated 2023)

These compounds were tested against CFTR (Homo sapiens, UniProt P13569) (assay: Membrane potential dye assay (FLIPR Tetra) of CFTR-mediated chloride transport in enteroid cells). Details: human intestinal epithelial enteroid cells; test compound 18-24 hours; acute 10 μM forskolin and 300 nM Compound III.
CFTR, sequence (P13569 with tags, fused parts or gaps DEL508-508): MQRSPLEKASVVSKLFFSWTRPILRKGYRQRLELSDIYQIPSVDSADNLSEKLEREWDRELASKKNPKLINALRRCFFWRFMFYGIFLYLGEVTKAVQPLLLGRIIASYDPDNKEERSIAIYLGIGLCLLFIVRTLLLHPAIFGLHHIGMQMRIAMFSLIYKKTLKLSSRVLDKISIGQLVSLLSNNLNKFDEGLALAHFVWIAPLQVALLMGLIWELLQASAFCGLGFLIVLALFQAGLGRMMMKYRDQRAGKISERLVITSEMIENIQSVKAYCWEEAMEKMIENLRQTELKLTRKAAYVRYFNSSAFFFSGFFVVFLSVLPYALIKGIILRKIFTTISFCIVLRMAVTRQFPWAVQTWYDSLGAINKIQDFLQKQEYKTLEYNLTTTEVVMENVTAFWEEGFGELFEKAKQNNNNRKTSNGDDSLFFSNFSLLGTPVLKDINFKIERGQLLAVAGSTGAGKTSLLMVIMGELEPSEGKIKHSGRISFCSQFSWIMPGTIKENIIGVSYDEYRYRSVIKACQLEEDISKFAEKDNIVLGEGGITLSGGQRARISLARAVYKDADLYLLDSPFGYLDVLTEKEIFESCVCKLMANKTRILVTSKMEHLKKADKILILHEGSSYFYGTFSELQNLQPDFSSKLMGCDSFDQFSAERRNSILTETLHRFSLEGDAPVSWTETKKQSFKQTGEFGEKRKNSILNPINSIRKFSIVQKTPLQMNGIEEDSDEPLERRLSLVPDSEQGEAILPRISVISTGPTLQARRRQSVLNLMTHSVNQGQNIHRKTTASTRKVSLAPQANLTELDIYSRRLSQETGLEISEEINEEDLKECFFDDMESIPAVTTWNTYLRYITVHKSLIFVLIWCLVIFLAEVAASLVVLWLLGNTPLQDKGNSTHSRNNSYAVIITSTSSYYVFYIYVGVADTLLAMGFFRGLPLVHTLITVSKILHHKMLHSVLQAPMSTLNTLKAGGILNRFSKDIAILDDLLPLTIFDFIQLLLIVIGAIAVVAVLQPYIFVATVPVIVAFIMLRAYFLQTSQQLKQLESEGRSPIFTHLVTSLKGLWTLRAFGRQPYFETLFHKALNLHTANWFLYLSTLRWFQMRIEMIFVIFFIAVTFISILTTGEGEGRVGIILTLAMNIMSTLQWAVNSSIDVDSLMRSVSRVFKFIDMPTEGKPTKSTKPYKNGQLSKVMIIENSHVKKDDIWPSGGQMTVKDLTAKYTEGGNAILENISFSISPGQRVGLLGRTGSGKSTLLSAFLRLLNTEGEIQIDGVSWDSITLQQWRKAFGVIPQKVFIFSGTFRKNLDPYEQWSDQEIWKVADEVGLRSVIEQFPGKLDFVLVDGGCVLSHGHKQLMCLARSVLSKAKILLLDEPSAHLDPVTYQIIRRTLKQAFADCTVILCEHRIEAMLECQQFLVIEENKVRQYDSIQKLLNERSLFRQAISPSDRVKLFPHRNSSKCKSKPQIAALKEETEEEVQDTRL
Assay type: cell-based
Source text: Enteroid Cell Harvesting and Seeding
Membrane Potential Dye Assay
`CC(C)(C)CC[Si](C)(C)c1ccn(-c2ccc3c(n2)N2C[C@@H](CCCNc4cccc(n4)S(=O)(=O)NC3=O)CC2(C)C)n1` [Compound (1-4), (14S)-8-{3-[(3,3-dimethylbutyl)dimethylsilyl]-1H-pyrazol-1-yl}-12,12-dimethyl-2λ^6-thia-3,9,11,18,23-pentaazatetracyclo[17.3.1.111,14.05,10]tetracosa-1(23),5(10),6,8,19,21-hexaene-2,2,4-trione] was tested, and the EC50 was under 1 µM.
With `CC1(C)C[C@@H]2CCCNc3cccc(n3)S(=O)(=O)NC(=O)c3ccc(-n4ccc(O[CH2][Ge]([CH3])([CH3])[CH3])n4)nc3N1C2` [Compound (2-1), (14S)-12,12-dimethyl-8-{3-[(trimethylgermyl)methoxy]-1H-pyrazol-1-yl}-2λ^6-thia-3,9,11,18,23-pentaazatetracyclo[17.3.1.111,14.05,10]tetracosa-1(23),5(10),6,8,19,21-hexaene-2,2,4-trione] the EC50 was under 1 µM.
Compound `CC1(C)C[C@@H]2CCCNc3cccc(n3)S(=O)(=O)NC(=O)c3ccc(-n4ccc(OC[Si](C)(C)C5(C(F)(F)F)CC5)n4)nc3N1C2` [Compound (1-1), (14S)-8-[3-({dimethyl[1-(trifluoromethyl)cyclopropyl]silyl}methoxy)-1H-pyrazol-1-yl]-12,12-dimethyl-2λ^6-thia-3,9,11,18,23-pentaazatetracyclo[17.3.1.111,14.05,10]tetracosa-1(22),5(10),6,8,19(23),20-hexaene-2,2,4-trione] has an EC50 of under 1 µM.
Compound `CC1(C)C[C@@H]2CCCNc3cccc(n3)S(=O)(=O)NC(=O)c3ccc(-n4ccc(OCC[Si](C)(C)C)n4)nc3N1C2` [Compound (1-7), (14S)-12,12-dimethyl-8-{3-[2-(trimethylsilyl)ethoxy]-1H-pyrazol-1-yl}-2λ^6-thia-3,9,11,18,23-pentaazatetracyclo[17.3.1.111,14.05,10]tetracosa-1(22),5(10),6,8,19(23),20-hexaene-2,2,4-trione] has an EC50 of under 1 µM.
For `CC1(C)C[C@@H]2CCCNc3cccc(n3)S(=O)(=O)NC(=O)c3ccc(-n4ccc(OCCC[Si](C)(C)C)n4)nc3N1C2` [Compound (1-6), (14S)-12,12-dimethyl-8-{3-[3-(trimethylsilyl)Propoxy]-1H-pyrazol-1-yl}-2λ^6-thia-3,9,11,18,23-pentaazatetracyclo[17.3.1.111,14.05,10]tetracosa-1(22),5(10),6,8,19(23),20-hexaene-2,2,4-trione], the EC50 was under 1 µM.
Compound `CC1(C)C[C@@H]2CCCNc3cccc(n3)S(=O)(=O)NC(=O)c3ccc(-n4ccc(OCCC5([Si](C)(C)C)CC5)n4)nc3N1C2` [(1-3)] has an EC50 of under 1 µM.
With `CC1(C)C[C@@H]2CCCNc3cccc(n3)S(=O)(=O)NC(=O)c3ccc(-n4ccc(OC[Si](C)(C)C)n4)nc3N1C2` [Compound (1-8), (14S)-12,12-dimethyl-8-{3-[(trimethylsilyl)methoxy]-1H-pyrazol-1-yl}-2λ^6-thia-3,9,11,18,23-pentaazatetracyclo[17.3.1.111,14.05,10]tetracosa-1(22),5(10),6,8,19(23),20-hexaene-2,2,4-trione] the EC50 was under 1 µM.
With `CC1(C)C[C@@H]2CCCNc3cccc(n3)S(=O)(=O)NC(=O)c3ccc(-n4ccc(OC[Si](C)(C)C(C)(C)C)n4)nc3N1C2` [Compound (1-2), (14S)-8-{3-[(tert-butyldimethylsilyl)methoxy]-1H-pyrazol-1-yl}-12,12-dimethyl-2λ^6-thia-3,9,11,18,23-pentaazatetracyclo[17.3.1.111,14.05,10]tetracosa-1(23),5(10),6,8,19,21-hexaene-2,2,4-trione] the EC50 was under 1 µM.
